Data from patent US20250325531A1, “TREATMENT OF SYSTOLIC DYSFUNCTION” (MyoKardia, Inc., priority 2024, published 2025).

Tested on: patients with stable HFrEF
Assay: Safety and tolerability (TEAEs, serum troponin, ECG, Holter) in MAD cohorts, patients with stable HFrEF
Assay type: in vivo, human
Experimental: During the study, multiple evaluations were performed that included: serial TTE assessments (11-14 TTEs per patient on Days 1, 2, 3, 4, 7, 9, 10 and 11); PK sampling (PK sample collected concomitantly with every post-randomization echocardiogram); ECGs (on Days 2, 3, 4, 7, 9, 10, 11 and 16); troponin (collected concomitantly with every post-randomization ECG); and safety laboratory assessments. Confined patients underwent continuous telemetry. Holter monitoring was performed in all patients at baseline (Days 1-2) and at the end of double-blind treatment (Days 7-9). Vital signs were collected daily.
Safety and efficacy assessments were conducted by measuring patients' vital signs and laboratory parameters; performing TTE to measure, e.g., systolic ejection time; performing electrocardiograms (e.g., 12-lead ECG), real-time ECG telemetry (e.g., at least 3-lead), and Holter ECG; and measuring levels of troponin (e.g., troponin I and/or troponin T) and 4β-hydroxycholesterol.
Abnormal and/or rising troponin values (as per investigator's judgment and taking into account potential baseline troponin elevation frequently observed in heart failure) led to the patient being clinically evaluated for possible myocardial ischemia. […] The entire clinical context (e.g., signs, symptoms, new ECG changes, new troponin, and CK-MB abnormalities) was evaluated and correlated with any other relevant clinical findings, patient's medical history, and laboratory data to determine the clinical significance of the findings. Troponin results performed on Day 2 of Part 1 (SAD) and Day 10 of Part 2 (MAD) at a local lab were reviewed prior to the patient being discharged the next day.

[1] = Cohort A + C 75 mg BID (n = 15)

With `Cn1cc(S(=O)(=O)[C@@](C)(F)C2CCN(C(=O)Nc3ccon3)CC2)c(C(F)F)n1` [Compound I, (R)-4-(1-((3-(difluoromethyl)-1-methyl-1H-pyrazol-4-yl)sulfonyl)-1-fluoroethyl)-N-(isoxazol-3-yl) piperidine-1-carboxamide] the “Number of patients with any AE leading to death” value (“Number of patients … to death” below) [1] was 0, the “Number of patients with any TEAE” value [1] was 6 and the “Number of patients with any TEAE leading to permanent treatment discontinuation” value (from here on “Number of patients with any TEAE leading”) [1] was 0. The “Number of patients with any serious TEAE” value [1] was 1, the “TEAE Abdominal discomfort, n patients” value [1] was 0 and the “TEAE Alanine aminotransferase increased, n patients” value [1] was 1. The “TEAE Anemia, n patients” value [1] was 1, the “TEAE Application site erosion, n patients” value [1] was 0 and the “TEAE Arthralgia, n patients” value [1] was 0. The “TEAE Arthropod bite, n patients” value [1] was 0, the “TEAE Back pain, n patients” value [1] was 0 and the “TEAE Blood creatine phosphokinase increased, n patients” value [1] was 0. For the same molecule, the “TEAE Blood creatinine increased, n patients” value [1] was 0, the “TEAE Cough, n patients” value [1] was 1 and the “TEAE Dermatitis contact, n patients” value [1] was 0. For the same molecule, the “TEAE Dry eye, n patients” value [1] was 0, the “TEAE Fatigue, n patients” value [1] was 2 and the “TEAE Fluid overload, n patients” value [1] was 0. The “TEAE Gingival pain, n patients” value [1] was 0, the “TEAE Hyperkalemia, n patients” value [1] was 0 and the “TEAE Infusion site erythema, n patients” value [1] was 0. The “TEAE Nasopharyngitis, n patients” value [1] was 0, the “TEAE Rash, n patients” value [1] was 0 and the “TEAE Renal failure, n patients” value [1] was 0. For the same molecule, the “TEAE Renal impairment, n patients” value [1] was 0, the “TEAE Testicular pain, n patients” value [1] was 0 and the “TEAE Troponin increased, n patients” value [1] was 1. For the same molecule, the “TEAE Ventricular tachycardia, n patients” value [1] was 0, the “Number of patients … to death” value (Cohort B 50 mg BID (n = 9)) was 0 and the “Number of patients with any TEAE” value (Cohort B 50 mg BID (n = 9)) was 7. For the same molecule, the “Number of patients with any TEAE leading” value (Cohort B 50 mg BID (n = 9)) was 0, the “Number of patients with any serious TEAE” value (Cohort B 50 mg BID (n = 9)) was 0 and the “TEAE Abdominal discomfort, n patients” value (Cohort B 50 mg BID (n = 9)) was 1. For the same molecule, the “TEAE Alanine aminotransferase increased, n patients” value (Cohort B 50 mg BID (n = 9)) was 1, the “TEAE Anemia, n patients” value (Cohort B 50 mg BID (n = 9)) was 0 and the “TEAE Application site erosion, n patients” value (Cohort B 50 mg BID (n = 9)) was 1. For the same molecule, the “TEAE Arthralgia, n patients” value (Cohort B 50 mg BID (n = 9)) was 0, the “TEAE Arthropod bite, n patients” value (Cohort B 50 mg BID (n = 9)) was 0 and the “TEAE Back pain, n patients” value (Cohort B 50 mg BID (n = 9)) was 0. The “TEAE Blood creatine phosphokinase increased, n patients” value (Cohort B 50 mg BID (n = 9)) was 1, the “TEAE Blood creatinine increased, n patients” value (Cohort B 50 mg BID (n = 9)) was 0 and the “TEAE Cough, n patients” value (Cohort B 50 mg BID (n = 9)) was 0. For the same molecule, the “TEAE Dermatitis contact, n patients” value (Cohort B 50 mg BID (n = 9)) was 2, the “TEAE Dry eye, n patients” value (Cohort B 50 mg BID (n = 9)) was 0 and the “TEAE Fatigue, n patients” value (Cohort B 50 mg BID (n = 9)) was 0. For the same molecule, the “TEAE Fluid overload, n patients” value (Cohort B 50 mg BID (n = 9)) was 1, the “TEAE Gingival pain, n patients” value (Cohort B 50 mg BID (n = 9)) was 0 and the “TEAE Hyperkalemia, n patients” value (Cohort B 50 mg BID (n = 9)) was 1. The “TEAE Infusion site erythema, n patients” value (Cohort B 50 mg BID (n = 9)) was 1, the “TEAE Nasopharyngitis, n patients” value (Cohort B 50 mg BID (n = 9)) was 0 and the “TEAE Rash, n patients” value (Cohort B 50 mg BID (n = 9)) was 1. For the same molecule, the “TEAE Renal failure, n patients” value (Cohort B 50 mg BID (n = 9)) was 0, the “TEAE Renal impairment, n patients” value (Cohort B 50 mg BID (n = 9)) was 0 and the “TEAE Testicular pain, n patients” value (Cohort B 50 mg BID (n = 9)) was 0. For the same molecule, the “TEAE Troponin increased, n patients” value (Cohort B 50 mg BID (n = 9)) was 0, the “TEAE Ventricular tachycardia, n patients” value (Cohort B 50 mg BID (n = 9)) was 1 and the “Number of patients … to death” value (Cohort D 100 mg BID (n = 6)) was 0. For the same molecule, the “Number of patients with any TEAE” value (Cohort D 100 mg BID (n = 6)) was 4, the “Number of patients with any TEAE leading” value (Cohort D 100 mg BID (n = 6)) was 0 and the “Number of patients with any serious TEAE” value (Cohort D 100 mg BID (n = 6)) was 0. The “TEAE Abdominal discomfort, n patients” value (Cohort D 100 mg BID (n = 6)) was 0, the “TEAE Alanine aminotransferase increased, n patients” value (Cohort D 100 mg BID (n = 6)) was 0 and the “TEAE Anemia, n patients” value (Cohort D 100 mg BID (n = 6)) was 0. For the same molecule, the “TEAE Application site erosion, n patients” value (Cohort D 100 mg BID (n = 6)) was 0, the “TEAE Arthralgia, n patients” value (Cohort D 100 mg BID (n = 6)) was 0 and the “TEAE Arthropod bite, n patients” value (Cohort D 100 mg BID (n = 6)) was 1. For the same molecule, the “TEAE Back pain, n patients” value (Cohort D 100 mg BID (n = 6)) was 0, the “TEAE Blood creatine phosphokinase increased, n patients” value (Cohort D 100 mg BID (n = 6)) was 0 and the “TEAE Blood creatinine increased, n patients” value (Cohort D 100 mg BID (n = 6)) was 1. For the same molecule, the “TEAE Cough, n patients” value (Cohort D 100 mg BID (n = 6)) was 0, the “TEAE Dermatitis contact, n patients” value (Cohort D 100 mg BID (n = 6)) was 0 and the “TEAE Dry eye, n patients” value (Cohort D 100 mg BID (n = 6)) was 0. The “TEAE Fatigue, n patients” value (Cohort D 100 mg BID (n = 6)) was 0, the “TEAE Fluid overload, n patients” value (Cohort D 100 mg BID (n = 6)) was 0 and the “TEAE Gingival pain, n patients” value (Cohort D 100 mg BID (n = 6)) was 1. For the same molecule, the “TEAE Hyperkalemia, n patients” value (Cohort D 100 mg BID (n = 6)) was 0, the “TEAE Infusion site erythema, n patients” value (Cohort D 100 mg BID (n = 6)) was 0 and the “TEAE Nasopharyngitis, n patients” value (Cohort D 100 mg BID (n = 6)) was 0. The “TEAE Rash, n patients” value (Cohort D 100 mg BID (n = 6)) was 0, the “TEAE Renal failure, n patients” value (Cohort D 100 mg BID (n = 6)) was 0 and the “TEAE Renal impairment, n patients” value (Cohort D 100 mg BID (n = 6)) was 0. For the same molecule, the “TEAE Testicular pain, n patients” value (Cohort D 100 mg BID (n = 6)) was 0, the “TEAE Troponin increased, n patients” value (Cohort D 100 mg BID (n = 6)) was 1 and the “TEAE Ventricular tachycardia, n patients” value (Cohort D 100 mg BID (n = 6)) was 1. The QTc (MAD cohorts) was “No increase in QTc”, the “patients with TEAEs” value (MAD cohorts, Compound I patients) was 17 (57%) n (%) and the “patients with transient and asymptomatic increase in troponin I or hs-troponin T” value (MAD cohorts, all doses) was 7 (23%) n (%). The “Number of patients … to death” value (Total Compound I (n = 30)) was 0, the “Number of patients with any TEAE” value (Total Compound I (n = 30)) was 17 and the “Number of patients with any TEAE leading” value (Total Compound I (n = 30)) was 0. The “Number of patients with any serious TEAE” value (Total Compound I (n = 30)) was 1, the “TEAE Abdominal discomfort, n patients” value (Total Compound I (n = 30)) was 1 and the “TEAE Alanine aminotransferase increased, n patients” value (Total Compound I (n = 30)) was 2. The “TEAE Anemia, n patients” value (Total Compound I (n = 30)) was 1, the “TEAE Application site erosion, n patients” value (Total Compound I (n = 30)) was 1 and the “TEAE Arthralgia, n patients” value (Total Compound I (n = 30)) was 0. The “TEAE Arthropod bite, n patients” value (Total Compound I (n = 30)) was 1, the “TEAE Back pain, n patients” value (Total Compound I (n = 30)) was 0 and the “TEAE Blood creatine phosphokinase increased, n patients” value (Total Compound I (n = 30)) was 1. For the same molecule, the “TEAE Blood creatinine increased, n patients” value (Total Compound I (n = 30)) was 1, the “TEAE Cough, n patients” value (Total Compound I (n = 30)) was 1 and the “TEAE Dermatitis contact, n patients” value (Total Compound I (n = 30)) was 2. For the same molecule, the “TEAE Dry eye, n patients” value (Total Compound I (n = 30)) was 0, the “TEAE Fatigue, n patients” value (Total Compound I (n = 30)) was 2 and the “TEAE Fluid overload, n patients” value (Total Compound I (n = 30)) was 1. The “TEAE Gingival pain, n patients” value (Total Compound I (n = 30)) was 1, the “TEAE Hyperkalemia, n patients” value (Total Compound I (n = 30)) was 1 and the “TEAE Infusion site erythema, n patients” value (Total Compound I (n = 30)) was 1. The “TEAE Nasopharyngitis, n patients” value (Total Compound I (n = 30)) was 0, the “TEAE Rash, n patients” value (Total Compound I (n = 30)) was 1 and the “TEAE Renal failure, n patients” value (Total Compound I (n = 30)) was 0. The “TEAE Renal impairment, n patients” value (Total Compound I (n = 30)) was 0, the “TEAE Testicular pain, n patients” value (Total Compound I (n = 30)) was 0 and the “TEAE Troponin increased, n patients” value (Total Compound I (n = 30)) was 2. For the same molecule, the “TEAE Ventricular tachycardia, n patients” value (Total Compound I (n = 30)) was 2, the “ventricular arrhythmias (Holter monitoring)” value (compared with placebo) was “no increase in ventricular arrhythmias” and the systolic blood pressure (higher concentration group) was “decrease”. For the same molecule, the “serious AE, one patient” value (not considered related to study treatment) was “hyperkalemia”.
